Laboratory results: patent US20040106671A1, “Remedies for vesical hyperesthesia” (priority 2001, published 2004)

What was measured:
[1] = system: Hypersensitivity of Bladder with Cystitis; test: Inhibitory activity on hypersensitivity of bladder with cystitis (cystometry, xylene-induced cystitis); type: in vivo, Male SD rats; conditions: oral, rats with xylene-induced cystitis; for pre-micturition contractions (amplitude, relative value, value before administration defined as 100): 0.05 mg/mL suspension at 2 mL/kg, average ± standard error, n = 13
Procedure: The experiment was carried out by referring to the method of Morikawa, et al. [Jpn. J. Pharmacol., Vol. 52, pp. 587-595 (1990)]. Male SD rats weighing from 250 to 400 g (supplied by Japan SLC) were used in the test. Five to seven animals of these rats were put in each metal cage and reared by allowing them to freely take commercially available chow and water, in an animal room at room temperature between 19 and 25° C. and humidity between […] and 70% under illumination for 12 hours (from 7:00 a.m. to 7:00 p.m.) per day. The rats were subjected to bladder catheterization. Under anesthesia with pentobarbital sodium, the bladder was exposed by midline incision of the abdomen. […] The bladder catheter was fixed with a surgical silk ligature and indwelled. The other end of the catheter was exposed subcutaneously from the back of the neck, plugged and then fixed to the skin with a surgical thread. Two to three days after the bladder catheterization, a cystometry test was performed. The rats were put in a Bollman cage (Natsume Seisakusho Co., Ltd.) and a three-way cock was connected to the bladder catheter, one end of the cock was connected to a pressure transducer (Nihon Kohden Corp.) and the other end was connected to a 50-mL syringe (Terumo Corp.) arranged to an infusion pump (Harvard Apparatus, Inc.) for physiological saline infusion. The intravesical pressure signal from the pressure transducer was amplified with a strain pressure amplifier (AP-601G, Nihon Kohden Corp.) connected thereto, and was recorded on a thermal array recorder (RTA-1200, Nihon Kohden Corp.) via a polygraph system (RMP-6008, Nihon Kohden Corp.) containing the above amplifier. After the completion of the preparation for the measurement, a room temperature physiological saline was continuously infused into the bladder at a flow rate of 3 mL/h, and the intravesical pressure was measured to observe micturition intervals. After the micturition intervals became constant, the intravesical pressure waveform was recorded for one hour. Then, saline infusion was stopped, and 0.5 mL of xylene (Wako Pure Chemical Industries, Ltd.) was infused into the bladder through the catheter and was removed about 10 seconds later to cause cystitis. After 30 minutes, the continuous infusion of saline was started again and the intravesical pressure was monitored for about one hour to obtain the value before dosing. The test compound was suspended in a 0.5 w/v % aqueous solution of methylcellulose at a concentration of 0.05 mg/mL. The suspension or a vehicle was orally administered to the animals at a volume of 2 mL/kg. After the administration of the test compound, the intravesical pressure waveform was recorded for 4.5 hours. […] Pre-micturition contraction was measured as an index of bladder hypersensitivity. The values of pre-micturition contractions were read from the intravesical pressure waveform recorded on a chart paper using a digitizer (KD3220, Graphtec Corporation) controlled by a computer (PC-9801NS/R, NEC), and saved as a WJ2 file on Lotus 1-2-3 R2.5J (Lotus). […] The amplitude of pre-micturition contractions was expressed as a relative value when the value before the drug administration that was defined as 100, and the average ±standard error was calculated for each group.

dd male mice = test: Acute toxicity test; type: in vivo; conditions: oral administration, mortality on the seventh day after the administration
Procedure: The test compound was administered orally or intraperitoneally to 3 animals per group of dd male mice (body weight: 20±1 g). The minimum lethal dose (MLD) value was obtained by observing mortality on the seventh day after the administration.

## C[C@](O)(C(=O)Nc1cccc2c1C(=O)c1sccc1CS2(=O)=O)C(F)(F)F [Compound 1, (S)-(+)-N-(5,5-dioxido-10-oxo-4,10-dihydrothieno[3,2-c][1]benzothiepin-9-yl)-3,3,3-trifluoro-2-hydroxy-2-methylpropanamide]
[1]; After 1 hour
  pre-micturition contractions (amplitude, relative value, value before administration defined as 100): 71.5 ± 6.5%
[1]; After 2 hours
  pre-micturition contractions (amplitude, relative value, value before administration defined as 100): 64.7 ± 6.8 %
[1]; After 3 hours
  pre-micturition contractions (amplitude, relative value, value before administration defined as 100): 61.7 ± 6.8 %
[1]; After 4 hours
  pre-micturition contractions (amplitude, relative value, value before administration defined as 100): 61.6 ± 5.4 %
[1]; Test Example 1
  effect on pre-micturition contractions (in words): inhibited pre-micturition contractions
Dd male mice
  minimum lethal dose (MLD): > 1000 mg/kg
